Measured values reported in paper PMC3292552, “Post-Translational Regulation and Trafficking of the Granulin-Containing Protease RD21 of Arabidopsis thaliana” (PLoS ONE, 2012).

Legend:
RD21 [1] = biological target: T1, RD21 (Arabidopsis thaliana, UniProt P43297); test: competition of DCG-04 labelling; protection of rubisco from degradation; assay type: biochemical; conditions: covalent; 20 µM E-64 preincubation, 0.2 µM DCG-04, pH 6, 1 mM DTT; leaf extract
T1 construct: gene RD21A; full-length preproprotein agroinfiltrated in Nicotiana benthamiana, two (pRH628) or three (pRH629) extra C-terminal Ser; crude leaf extract; processed in planta to iRD21/mRD21; mRD21 N-termini DELPE, LPE, GDELPE; also endogenous in Arabidopsis leaf extract
T1 sequence (P43297 137-462): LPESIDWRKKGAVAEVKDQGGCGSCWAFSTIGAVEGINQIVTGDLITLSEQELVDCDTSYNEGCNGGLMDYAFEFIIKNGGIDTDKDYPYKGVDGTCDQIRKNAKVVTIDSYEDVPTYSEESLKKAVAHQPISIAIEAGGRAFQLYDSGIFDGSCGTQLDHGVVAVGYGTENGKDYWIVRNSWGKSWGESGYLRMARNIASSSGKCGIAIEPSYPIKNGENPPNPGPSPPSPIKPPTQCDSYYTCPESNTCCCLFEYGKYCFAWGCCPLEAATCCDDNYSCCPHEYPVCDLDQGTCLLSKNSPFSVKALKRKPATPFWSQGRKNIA

RD21 [2] = biological target: T2, RD21 (Arabidopsis thaliana, UniProt P43297, C161A); test: competition of DCG-04 labelling; assay type: biochemical; conditions: 20 µM E-64 preincubation, 0.2 µM DCG-04, pH 6; catalytic Cys absent; leaf extract
T2 construct: gene RD21A; full-length preproprotein agroinfiltrated in Nicotiana benthamiana, two (pRH628) or three (pRH629) extra C-terminal Ser; crude leaf extract; processed in planta to iRD21/mRD21; mRD21 N-termini DELPE, LPE, GDELPE; also endogenous in Arabidopsis leaf extract
T2 sequence (P43297 137-462 C161A): as the sequence (P43297 137-462) above, with C25A counted along it

CC(C)C[C@H](NC(=O)[C@H]1O[C@@H]1C(=O)O)C(=O)NCCCCNC(=N)N [E-64]
competition of DCG-04 labelling; protection of rubisco from degradation (RD21 [1]): the reaction with DCG-04 can be prevented by preincubation with E-64
competition of DCG-04 labelling (RD21 [2]): a weak, E-64-competable biotinylation occurs of iRD21
